Where two headings read alike, the source gives them in different places.
Columns and labels:
Format in all cases: cell-based, human
HTT mRNA = assay: RT-qPCR splicing assay, HTT canonical (CJ) and alternative (AJ) junction mRNA; details: for AC50: read-out: HTT AJ (AC50, increase in AJ mRNA)
Method in brief: (§1)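 A673 (DMEM/10% FBS) or K562 (IMDM/10% FBS) cells treated 24 h at 37 °C with 11-point 3-fold dilutions, top 10 uM final, DMSO ≤0.25%. Lysates read by one-step RT-qPCR for CJ and AJ isoforms, normalized to GAPDH, GUSB or PPIA. ΔΔCt vs DMSO gives RQ via 2^(-ΔΔCt).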

MYB mRNA = assay: RT-qPCR splicing assay, MYB canonical (CJ) and alternative (AJ) junction mRNA; details: for AC50: read-out: MYB AJ (AC50, increase in AJ mRNA)
Method in brief: as §1

SMN2 mRNA = assay: RT-qPCR splicing assay panel, SMN2 canonical junction (CJ) mRNA; details: canonical junction (CJ) mRNA, RT-qPCR panel, Table 4A, read-out: SMN2, decrease in CJ mRNA levels, IC50
Method in brief: as §1

Target C mRNA = assay: RT-qPCR splicing assay panel, Target C canonical junction (CJ) mRNA; details: canonical junction (CJ) mRNA, RT-qPCR panel, Table 4A, read-out: Target C, decrease in CJ mRNA levels, IC50
Method in brief: as §1

[1] = Homo sapiens, 24 h, Table 3A, A673 or K562 cells, 24 h treatment
[2] = Homo sapiens, 24 h, Table 3A, A673 or K562 cells, 24 h treatment, read-out: HTT CJ (IC50, decrease in CJ mRNA)
[3] = Homo sapiens, canonical junction (CJ) mRNA, RT-qPCR panel, Table 4A, read-out: HTT, decrease in CJ mRNA levels, IC50
[4] = Homo sapiens, 24 h, Table 3A, A673 or K562 cells, 24 h treatment, read-out: MYB CJ (IC50, decrease in CJ mRNA)
[5] = Homo sapiens, canonical junction (CJ) mRNA, RT-qPCR panel, Table 4A, read-out: MYB, decrease in CJ mRNA levels, IC50
[6] = Table 3A, A673 or K562 cells, 24 h treatment
[7] = Table 3A, A673 or K562 cells, 24 h treatment, read-out: HTT CJ (IC50, decrease in CJ mRNA)
[8] = canonical junction (CJ) mRNA, RT-qPCR panel, Table 4A, read-out: HTT, decrease in CJ mRNA levels, IC50
[9] = Table 3A, A673 or K562 cells, 24 h treatment, read-out: MYB CJ (IC50, decrease in CJ mRNA)
[10] = canonical junction (CJ) mRNA, RT-qPCR panel, Table 4A, read-out: MYB, decrease in CJ mRNA levels, IC50

Compound	AC50 (HTT mRNA; [1]) [nM]	IC50 (HTT mRNA; [2]) [nM]	IC50 (HTT mRNA; [3]) [nM]	AC50 (MYB mRNA; [1]) [nM]	IC50 (MYB mRNA; [4]) [nM]	IC50 (MYB mRNA; [5]) [nM]	IC50 (SMN2 mRNA; Homo sapiens) [nM]	IC50 (Target C mRNA; Homo sapiens) [nM]	AC50 (HTT mRNA; [6]) [nM]	IC50 (HTT mRNA; [7]) [nM]	IC50 (HTT mRNA; [8]) [nM]	AC50 (MYB mRNA; [6]) [nM]	IC50 (MYB mRNA; [9]) [nM]	IC50 (MYB mRNA; [10]) [nM]	IC50 (SMN2 mRNA) [nM]	IC50 (Target C mRNA) [nM]
Cc1ncc(-c2cc(O)c(-c3ccc(N4CC[C@H](NC5CCC5)C4)nn3)cc2F)o1 [Compound 229, 2-{6-[(3S)-3-(cyclobutylamino)pyrrolidin-1-yl]pyridazin-3-yl}-4-fluoro-5-(2-methyl-1,3-oxazol-5-yl) phenol]	< 100	< 100	< 100	100 to 1000	100 to 1000	100 to 1000	< 100	100 to 1000								
COc1cc(-c2cc(O)c(-c3ccc(N4CC[C@@H](NC5CCC5)C4)nn3)cc2F)cnn1 [Compound 230, 2-{6-[(3R)-3-(cyclobutylamino)pyrrolidin-1-yl]pyridazin-3-yl}-4-fluoro-5-(6-methoxypyridazin-4-yl)phenol]	100 to 1000	100 to 1000	100 to 1000	1000 to 10000	1000 to 10000	1000 to 10000	< 100	1000 to 10000								
COc1cc(-c2cc(O)c(-c3ccc(N4CC[C@H](NC5CCC5)C4)nn3)cc2F)cnn1 [Compound 231, 2-{6-[(3S)-3-(cyclobutylamino)pyrrolidin-1-yl]pyridazin-3-yl}-4-fluoro-5-(6-methoxypyridazin-4-yl)phenol]	< 100	< 100	< 100	100 to 1000	100 to 1000	100 to 1000	< 100	100 to 1000								
COc1cc(-c2cc(O)c(-c3ccc(N4CC[C@@H](N[C@H]5C[C@H](F)C5)C4)nn3)cc2F)cnn1 [Compound 232]	100 to 1000	< 100	< 100	100 to 1000	100 to 1000	100 to 1000	< 100	100 to 1000								
CC(C)(C)N[C@H]1CCN(c2ccc(-c3ccc(-c4cn[nH]c4)cc3O)nn2)C1 [Compound 261]	< 100	< 100	< 100	100 to 1000	100 to 1000	100 to 1000	< 100	< 100								
CC(C)(C)N[C@@H]1CCN(c2ccc(-c3ccc(-c4cn[nH]c4)cc3O)nn2)C1 [Compound 262]	< 100	< 100	< 100	< 100	< 100	< 100	< 100	< 100								
Oc1cc(-c2cn[nH]c2)ccc1-c1ccc(N2CCN[C@@H](C3CC3)C2)nn1 [Compound 263]	< 100	< 100	< 100	100 to 1000	100 to 1000	100 to 1000	< 100	100 to 1000								
COc1cc(-c2ccc(-c3ccc(N4CC[C@@H](NC5CCC5)C4)nn3)c(O)c2)cnn1 [Compound 264]	100 to 1000	< 100	< 100	100 to 1000	100 to 1000	100 to 1000	< 100	100 to 1000								
COc1cc(-c2ccc(-c3ccc(N4CC[C@H](NC5(C)CC5)C4)nn3)c(O)c2)cnn1 [Compound 265, 5-(6-methoxypyridazin-4-yl)-2-{6-[(3S)-3-[(1-methylcyclopropyl)amino]pyrrolidin-1-yl]pyridazin-3-yl}phenol]									< 100	< 100	< 100	< 100	< 100	< 100	< 100	< 100
COc1cc(-c2ccc(-c3ccc(N4CC[C@@H](NC5(C)CC5)C4)nn3)c(O)c2)cnn1 [Compound 266, 5-(6-methoxypyridazin-4-yl)-2-{6-[(3R)-3-[(1-methylcyclopropyl)amino]pyrrolidin-1-yl]pyridazin-3-yl}phenol]									< 100	< 100	< 100	100 to 1000	100 to 1000	100 to 1000	< 100	100 to 1000
Cc1ncc(-c2cc(O)c(-c3ccc(N4CC[C@H](N(C)C5CCC5)C4)nn3)cc2F)s1 [Compound 267]	< 100	< 100	< 100	< 100	< 100	< 100	< 100	< 100								
Cc1ncc(-c2ccc(-c3ccc(N4CC[C@H](N(C)C5CCC5)C4)nn3)c(O)c2)s1 [Compound 268]	1000 to 10000	100 to 1000	100 to 1000	> 10000	> 10000	> 10000	100 to 1000	> 10000								
Cc1ncc(-c2cc(O)c(-c3ccc(N4CC[C@@H](N(C)C5CCC5)C4)nn3)cc2F)s1 [Compound 269]	< 100	< 100	< 100	100 to 1000	< 100	< 100	< 100	< 100								
Cc1ncc(-c2ccc(-c3ccc(N4CC[C@@H](N(C)C5CCC5)C4)nn3)c(O)c2)s1 [Compound 270, 2-{6-[(3R)-3-[cyclobutyl(methyl)amino]pyrrolidin-1-yl]pyridazin-3-yl}-5-(2-methyl-1,3-thiazol-5-yl) phenol]	> 10000	> 10000	> 10000	> 10000	> 10000	> 10000	100 to 1000	> 10000								
COc1cc(-c2ccc(-c3ccc(OC4CC(C)(C)NC(C)(C)C4)nn3)c(O)c2)cnn1 [Compound 271]	< 100	< 100	< 100	100 to 1000	< 100	< 100	< 100	< 100								
COc1cc(-c2cc(O)c(-c3ccc(OC4CC(C)(C)NC(C)(C)C4)nn3)cc2F)cnn1 [Compound 272]	< 100	< 100	< 100	100 to 1000	100 to 1000	100 to 1000	< 100	100 to 1000								
COc1cc(-c2cc(O)c(-c3ccc(N4CCC(N[C@H]5C[C@@H](F)C5)C4)nn3)cc2F)cnn1 (some centres unmarked) [Compound 273, 4-fluoro-5-(6-methoxypyridazin-4-yl)-2-[6-(3-{[(1s,3s)-3-fluorocyclobutyl]amino}pyrrolidin-1-yl)pyridazin-3-yl]phenol]	100 to 1000	100 to 1000	100 to 1000	100 to 1000	100 to 1000	100 to 1000	< 100	100 to 1000								
COc1cc(-c2cc(O)c(-c3ccc(N4CCC(N[C@H]5C[C@H](F)C5)C4)nn3)cc2F)cnn1 (some centres unmarked) [Compound 274]	100 to 1000	< 100	< 100	100 to 1000	100 to 1000	100 to 1000	< 100	100 to 1000								
COc1cc(-c2ccc(-c3ccc(N4CCC(C)(NC5CCC5)C4)nn3)c(O)c2)cnn1 (centres unmarked) [Compound 275]	< 100	< 100	< 100	100 to 1000	100 to 1000	100 to 1000	< 100	< 100								
CCN(C1CCC1)[C@H]1CCN(c2ccc(-c3ccc(-c4cnnc(OC)c4)cc3O)nn2)C1 [Compound 276]	100 to 1000	< 100	< 100	100 to 1000	100 to 1000	100 to 1000	< 100	100 to 1000								
CCc1cc(-c2ccc(-c3ccc(N4CC[C@@H](NC5CCC5)C4)nn3)c(O)c2)cnn1 [Compound 277, 2-{6-[(3R)-3-(cyclobutylamino)pyrrolidin-1-yl]pyridazin-3-yl}-5-(6-ethylpyridazin-4-yl)phenol]	> 10000	1000 to 10000	1000 to 10000	> 10000	1000 to 10000	1000 to 10000	1000 to 10000	> 10000								
CCc1cc(-c2ccc(-c3ccc(N4CC[C@H](NC5CCC5)C4)nn3)c(O)c2)cnn1 [Compound 278]	> 10000	1000 to 10000	1000 to 10000	> 10000	1000 to 10000	1000 to 10000	1000 to 10000	> 10000								
